Source: US8680052B1, “Methods of treating, reducing the incidence of, and/or preventing ischemic events” (The Medicines Company, priority 2013, dated 2014)

What was measured:
[1] = tested on: patients undergoing percutaneous coronary intervention (PCI); test: Example 1: bleeding and adverse events through 48 hours;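 also: bleeding events compared through 48 h in the safety population, meaning patients given at least one study drug dose and grouped by treatment actually received, two-tailed tests at 0.05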
Method: (§1) The primary efficacy endpoint was the composite of mortality, myocardial infarction, or ischemia-driven revascularization at 48 hours. The primary analysis was performed on a modified intent-to-treat population. Confirmatory analyses were performed on an intent-to-treat population. Secondary endpoints included the individual rates of mortality, myocardial infarction, new Q-wave myocardial infarction, ischemia-driven revascularization, abrupt vessel closure, or stroke at 48 hours. Mortality at 30 days and 1 year was also recorded. The clinical events committee adjudicated myocardial infarction, Q-wave myocardial infarction, ischemia-driven revascularization, stent thromboses, and stroke (ischemic or hemorrhagic). The definition of stent thrombosis was similar to the Academic Research Consortium definition of definite stent thrombosis. After review of the prespecified analyses, two exploratory endpoints less reliant on periprocedural biomarker ascertainment were examined. The exploratory endpoints, which were composed of prespecified and adjudicated endpoints, were the composite of mortality, Q-wave myocardial infarction, or ischemia-driven revascularization and the composite of mortality, Q-wave myocardial infarction, or stent thrombosis. Bleeding and adverse events through 48 hours were compared.
(§2) All efficacy analyses were performed on the modified intent-to-treat population, defined as all randomized patients who received at least one dose of study drug and underwent the index PCI. All safety-related analyses were performed on the safety population, which included all patients who received at least one dose of assigned study drug. Patients in the safety analyses were assigned to a treatment arm based on treatment actually received, not as randomized. Intent-to-treat analyses are also presented for full disclosure of results. All statistical tests were two-tailed using a level of significance of 0.05. […] Logistic regression was also used to analyze the majority of the remaining secondary endpoints.

[2] = molecular target: T1, P2Y12 receptor (Homo sapiens, UniProt Q9H244); test: Example 2 substudy: platelet function by VerifyNow P2Y12 Assay; type: in vivo
T1 construct: from tissue; host or cells: platelets in whole blood of patients
Method: Platelet function parameters were measured using the VerifyNow® P2Y12 Assay (Accumetrics, San Diego, Calif.). Samples were taken before study drug administration, at approximately 2 hours (during cangrelor/placebo infusion), and 10 hours or next day following randomization.

[3] = in vivo; cited from earlier work
[4] = tested on: platelet function; settings: in vivo; cited from earlier work
[5] = tested on: patients undergoing percutaneous coronary intervention (PCI); settings: human, in vivo, 48 h;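 also: bleeding events compared through 48 h in the safety population, meaning patients given at least one study drug dose and grouped by treatment actually received, two-tailed tests at 0.05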
Method: as §1, §2

[6] = molecular target: T1, P2Y12 receptor; test: Example 4: VerifyNow P2Y12 assay, platelet reactivity in PRU; type: in vivo
Method: The study involved 12 patients who met the criteria of being 18-75 years of age, having coronary artery disease (CAD) documented by a previous MI or coronary revascularization, and taking 81 mg of aspirin daily. […] Use of non-steroidal anti-inflammatory agents was discouraged during study participation but not prohibited.
Each patient was administered a 30 μg/kg bolus of cangrelor followed immediately by a 2 hr infusion at a rate of 4.0 μg/kg/min. A loading dose of ticagrelor (180 mg) was given after 0.5 hr or 1.25 hr (n=6 for each). Blood for pharmacodynamic platelet function studies was taken after 0.5 or 1.25 hr (corresponding to the time of ticagrelor load, n=6 for each), and then at 1.75, 2, 2.25, 2.5, 2.75, 3, 4, and 5.25 hr. Patients were assigned randomly to receive either 6 (n=6) or 7 (n=6) doses of ticagrelor to be taken every 12 hours following the discontinuation of the infusion of cangrelor. On study day 5, each patient was administered a 30 μg/kg bolus of cangrelor followed immediately by a 2 hr infusion at a rate of 4.0 μg/kg/min. Blood for pharmacodynamic assessment was taken after 1 and 2 hr. Adverse events were queried throughout study participation that ended with a telephone interview performed on study day 10-12.
Pharmacodynamic assessment included light transmission aggregometry (LTA), VerifyNow® P2Y12 assay, vasodilator-stimulated phosphoprotein (VASP) index, and platelet activation measured with the use of flow cytometry. Assessment of LTA, VerifyNow®, and platelet activation with the use of flow cytometry was performed within 30 min of blood being taken. In the case of flow cytometry, samples were processed to fixation and then batched for analysis. For VASP, index samples were batched and processed as recommended by the vendor within 2 h of blood being taken. This approach limited the time from fixation of VASP index to flow analysis to less than 1 h.
LTA induced by 5 μM and 20 μM adenosine diphosphate (ADP) was quantified ex vivo (i.e. in non-adjusted platelet rich plasma). Platelet-poor plasma was set as 100% aggregation, and both maximal (peak) and terminal (at 300 s) aggregation were measured with a PAP4 aggregometer (BioData, Horsham, Pa.). VerifyNow® P2Y12 assay (Accumetrics Inc, San Diego, Calif.) that measures the effects of drugs on the P2Y12 receptor by activating platelets with prostaglandin El in addition to ADP was used in accordance with the instructions provided by the manufacturer. Platelet reactivity was expressed in P2Y12 reaction units (PRU). Activation of platelets was identified with the use of flow cytometry as previously described.^17. And to determine the VASP index, a commercially available kit (Diagnostica Stago, Inc, Parsippany NJ) was used. ^17 Schneider D J, Sobel B E. Streamlining the design of promising clinical trials: in-vitro testing of antithrombotic regimens and multiple agonists of platelet activation. Coron Artery Dis. 2009; 20:175-8.

[7] = 48-hour, safety population, cangrelor vs placebo
[8] = Study Day 1, 1.75 h, Ticagrelor at 0.5 hr
[9] = Study Day 1, 1.75 h, Ticagrelor at 1.25 hr
[10] = Study Day 1, 2.0 h, Ticagrelor at 0.5 hr
[11] = Study Day 1, 2.0 h, Ticagrelor at 1.25 hr
[12] = Study Day 1, reference 0.5/1.25 h, All
[13] = Study Day 1, reference 0.5/1.25 h, Ticagrelor at 0.5 hr
[14] = Study Day 1, reference 0.5/1.25 h, Ticagrelor at 1.25 hr
[15] = Study Day 5, 1.0 h, Ticagrelor 6 doses
[16] = Study Day 5, 1.0 h, Ticagrelor 7 doses
[17] = Study Day 5, 2.0 h, Ticagrelor 6 doses
[18] = Study Day 5, 2.0 h, Ticagrelor 7 doses

T1 sequence (Q9H244 whole entry): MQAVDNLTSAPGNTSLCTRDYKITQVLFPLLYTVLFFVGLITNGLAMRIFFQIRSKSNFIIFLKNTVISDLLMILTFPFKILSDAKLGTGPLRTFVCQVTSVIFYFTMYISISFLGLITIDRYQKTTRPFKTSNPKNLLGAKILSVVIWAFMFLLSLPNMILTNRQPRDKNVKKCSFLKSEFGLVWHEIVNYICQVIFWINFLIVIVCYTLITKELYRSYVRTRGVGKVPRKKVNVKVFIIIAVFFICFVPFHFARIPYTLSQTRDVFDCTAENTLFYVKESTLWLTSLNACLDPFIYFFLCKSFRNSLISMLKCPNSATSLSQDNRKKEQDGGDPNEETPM

SMILES: CSCCNc1nc(SCCC(F)(F)F)nc2c1ncn2[C@@H]1O[C@H](COP(=O)(O)OP(=O)(O)C(Cl)(Cl)P(=O)(O)O)[C@@H](O)[C@H]1O [Cangrelor, cangrelor]
- Thrombocytopenia ([1]; 48-hour, safety population): 2 (0.1) no. (%)
- Odds Ratio (95% CI): ACUITY criteria Major bleeding [1, 7]: 1.607 (1.232, 2.096)
- Odds Ratio (95% CI): ACUITY criteria Minor bleeding [1, 7]: 1.335 (1.120, 1.592)
- Odds Ratio (95% CI): Access site bleeding requiring radiologic or surgical intervention [1, 7]: 0.796 (0.314, 2.019)
- Odds Ratio (95% CI): GUSTO criteria Moderate bleeding [1, 7]: 1.536 (0.762, 3.093)
- Odds Ratio (95% CI): GUSTO criteria Severe/life-threatening bleeding [1, 7]: 1.495 (0.531, 4.205)
- Odds Ratio (95% CI): Hematoma <5 cm at puncture site [1, 7]: 1.270 (0.992, 1.626)
- Odds Ratio (95% CI): Hematoma ≧5 cm at puncture site [1, 7]: 1.640 (1.214, 2.216)
- Odds Ratio (95% CI): Hemodynamic compromise [1, 7]: 1.395 (0.442, 4.400)
- Odds Ratio (95% CI): Intracranial hemorrhage [1, 7]: 1.992 (0.180, 21.978)
- Odds Ratio (95% CI): Oozing at puncture site [1, 7]: 1.385 (1.052, 1.825)
- rates of red blood cell transfusion ([1]; 48 hours): 0.9%
- incidence of dyspnea ([1]; human, in vivo, 48 h): 1.4%
- rate of arrhythmia ([1]; human, in vivo, 48 h): 2.3%
- median PRU (VerifyNow P2Y12 assay) ([2]; 12-24 hours after discontinuation of the cangrelor infusion): 228 PRU
- median PRU (VerifyNow P2Y12 assay) ([2]; during the study drug infusion (approx. 2 hours)): 93.5 PRU
- plasma half-life [3]: 3 to 5 min
- platelet function returns to normal after drug termination [4]: 30 to 60 min
- ACUITY criteria Major bleeding [5]: 147 (5.5) no. (%)
- ACUITY criteria Minor bleeding [5]: 320 (12.0) no. (%)
- Access site bleeding requiring radiologic or surgical intervention [5]: 8 (0.3) no. (%)
- Any blood transfusion [5]: 26 (1.0) no. (%)
- Any platelet transfusion [5]: 4 (0.2) no. (%)
- Any red blood cell transfusion [5]: 25 (0.9) no. (%)
- Drop in hemoglobin and/or hematocrit [5]: 33 (1.2) no. (%)
- Ecchymosis [5]: 95 (3.6) no. (%)
- Epistaxis [5]: 6 (0.2) no. (%)
- GUSTO criteria Mild bleeding [5]: 427 (16.0) no. (%)
- GUSTO criteria Moderate bleeding [5]: 20 (0.8) no. (%)
- GUSTO criteria Severe/life-threatening bleeding [5]: 9 (0.3) no. (%)
- Hematoma <5 cm at puncture site [5]: 150 (5.6) no. (%)
- Hematoma ≧5 cm at puncture site [5]: 115 (4.3) no. (%)
- Hemodynamic compromise [5]: 7 (0.3) no. (%)
- Intracranial hemorrhage [5]: 2 (0.1) no. (%)
- Intraocular [5]: 0 (0.0) no. (%)
- Odds Ratio (95% CI): Any blood transfusion [5]: 1.624 (0.869, 3.034)
- Odds Ratio (95% CI): Any platelet transfusion [5]: 1.992 (0.365, 10.887)
- Odds Ratio (95% CI): Any red blood cell transfusion [5]: 1.665 (0.876, 3.166)
- Odds Ratio (95% CI): Drop in hemoglobin and/or hematocrit [5]: 0.938 (0.581, 1.514)
- Odds Ratio (95% CI): Ecchymosis [5]: 1.684 (1.207, 2.349)
- Odds Ratio (95% CI): Epistaxis [5]: 0.497 (0.186, 1.325)
- Odds Ratio (95% CI): GUSTO criteria Mild bleeding [5]: 1.442 (1.232, 1.688)
- Odds Ratio (95% CI): Reoperation for bleeding [5]: 0.995 (0.062, 15.924)
- Odds Ratio (95% CI): Retroperitoneal [5]: 1.992 (0.180, 21.978)
- Odds Ratio (95% CI): TIMI criteria Major bleeding [5]: 0.442 (0.136, 1.436)
- Odds Ratio (95% CI): TIMI criteria Minor bleeding [5]: 1.372 (0.719, 2.618)
- Odds Ratio (95% CI): Thrombocytopenia [5]: 0.663 (0.111, 3.973)
- Oozing at puncture site [5]: 125 (4.7) no. (%)
- Reoperation for bleeding [5]: 1 (0.0) no. (%)
- Retroperitoneal [5]: 2 (0.1) no. (%)
- TIMI criteria Major bleeding [5]: 4 (0.2) no. (%)
- TIMI criteria Minor bleeding [5]: 22 (0.8) no. (%)
- VerifyNow IPR ([6]; Study Day 1, 1.75 h, All): 99 ± 1
- VerifyNow PRU ([6]; Study Day 1, 1.75 h, All): 3.8 ± 2.6 PRU
- VerifyNow IPR [6, 8]: 99 ± 1
- VerifyNow PRU [6, 8]: 3.8 ± 2.6 PRU
- VerifyNow IPR [6, 9]: 99 ± 1
- VerifyNow PRU [6, 9]: 3.7 ± 2.8 PRU
- VerifyNow IPR ([6]; Study Day 1, 2.0 h, All): 98 ± 3
- VerifyNow PRU ([6]; Study Day 1, 2.0 h, All): 6.4 ± 7.5 PRU
- VerifyNow IPR [6, 10]: 97 ± 2
- VerifyNow PRU [6, 10]: 6.9 ± 4.9 PRU
- VerifyNow IPR [6, 11]: 98 ± 4
- VerifyNow PRU [6, 11]: 5.9 ± 9.9 PRU
- VerifyNow IPR [6, 12]: 97 ± 3
- VerifyNow PRU [6, 12]: 7.3 ± 9.3 PRU
- VerifyNow IPR [6, 13]: 97 ± 4
- VerifyNow PRU [6, 13]: 8.8 ± 12 PRU
- VerifyNow IPR [6, 14]: 98 ± 3
- VerifyNow PRU [6, 14]: 5.8 ± 7.3 PRU
- VerifyNow IPR ([6]; Study Day 5, 1.0 h, All): 99 ± 1
- VerifyNow PRU ([6]; Study Day 5, 1.0 h, All): 3.3 ± 2 PRU
- VerifyNow IPR [6, 15]: 99 ± 1
- VerifyNow PRU [6, 15]: 2.8 ± 1.9 PRU
- VerifyNow IPR [6, 16]: 98 ± 1
- VerifyNow PRU [6, 16]: 3.9 ± 2.1 PRU
- VerifyNow IPR ([6]; Study Day 5, 2.0 h, All): 98 ± 3
- VerifyNow PRU ([6]; Study Day 5, 2.0 h, All): 4.5 ± 6.4 PRU
- VerifyNow IPR [6, 17]: 99 ± 1
- VerifyNow PRU [6, 17]: 2.4 ± 1.9 PRU
- VerifyNow IPR [6, 18]: 97 ± 3
- VerifyNow PRU [6, 18]: 6.5 ± 8.8 PRU
